Measurements published in patent US8138189B2, “Substituted benzene compounds as modulators of the glucocorticoid receptor” (Hoffman-La Roche Inc., priority 2009, dated 2012).
pKi: −log10 of the molar value.

Molecular target: T1, full length human recombinant glucocorticoid receptor (Homo sapiens, UniProt P04150)
T1 construct: partially purified full length human recombinant glucocorticoid receptor; purchased Panvera/Invitrogen PV4302
T1 sequence (P04150 1-777): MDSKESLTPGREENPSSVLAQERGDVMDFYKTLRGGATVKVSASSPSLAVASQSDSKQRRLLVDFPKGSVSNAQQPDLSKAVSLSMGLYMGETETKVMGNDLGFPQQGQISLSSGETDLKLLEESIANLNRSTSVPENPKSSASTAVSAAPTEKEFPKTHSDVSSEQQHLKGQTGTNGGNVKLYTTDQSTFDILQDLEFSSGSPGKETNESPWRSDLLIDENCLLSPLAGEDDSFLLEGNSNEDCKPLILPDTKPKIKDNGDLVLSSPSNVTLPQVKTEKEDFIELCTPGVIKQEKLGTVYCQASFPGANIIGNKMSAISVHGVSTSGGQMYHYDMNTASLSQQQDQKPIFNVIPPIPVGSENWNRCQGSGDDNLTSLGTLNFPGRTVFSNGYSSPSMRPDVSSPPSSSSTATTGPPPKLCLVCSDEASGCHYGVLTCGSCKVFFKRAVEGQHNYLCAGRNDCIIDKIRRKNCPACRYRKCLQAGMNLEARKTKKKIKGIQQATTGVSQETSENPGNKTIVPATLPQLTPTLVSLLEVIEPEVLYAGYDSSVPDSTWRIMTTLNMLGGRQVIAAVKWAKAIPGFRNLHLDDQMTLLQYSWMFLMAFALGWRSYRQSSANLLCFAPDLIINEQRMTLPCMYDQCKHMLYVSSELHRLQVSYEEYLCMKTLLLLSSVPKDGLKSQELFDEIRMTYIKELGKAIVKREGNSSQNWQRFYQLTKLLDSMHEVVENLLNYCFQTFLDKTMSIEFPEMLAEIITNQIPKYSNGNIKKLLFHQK
Experiment: Glucocorticoid Receptor Binding Assay (fluorescence polarization competitor assay, Fluormone GS Far Red tracer)
Procedure, shortened: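 Partially purified full-length recombinant human GR with a stabilizing coactivator peptide was incubated with Fluormone GS Far Red tracer and serially diluted compound for 3 h at 22 °C in the dark, pH 7.4. Fluorescence polarization was read at 610-660 nm. IC50 came from sigmoidal fitting, and Ki from Cheng-Prusoff.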

Question: How did the pKi turn out when `COc1cc(C(=O)O)ccc1COc1ccc([C@@H](C)[C@@](O)(c2ccnc(Cl)c2)C(F)(F)F)c(Cl)c1` (stereo in doubt) [Example 22, 4-{3-Chloro-4-[2-(2-chloro-pyridin-4-yl)-3,3,3-trifluoro-2-hydroxy-1-methyl-propyl]-phenoxymethyl}-3-methoxy-benzoic acid] was run?
Answer: Its pKi is 7.97.

Question: How did the pKi turn out when `C[C@H](c1ccc(OCc2ccc(CC(=O)O)cc2)cc1Cl)[C@@](O)(c1ccnc(Cl)c1)C(F)(F)F` (stereo in doubt) [Example 24, (4-{3-Chloro-4-[2-(2-chloro-pyridin-4-yl)-3,3,3-trifluoro-2-hydroxy-1-methyl-propyl]-phenoxymethyl}-phenyl)-acetic acid] was run?
Answer: Its pKi is 8.33.

Question: `C[C@H](c1ccc(OS(=O)(=O)c2ccc(C(=O)O)cc2)cc1Cl)[C@@](O)(c1ccnc(Cl)c1)C(F)(F)F` (stereo in doubt) [Example 25, 4-{3-Chloro-4-[2-(2-chloro-pyridin-4-yl)-3,3,3-trifluoro-2-hydroxy-1-methyl-propyl]-phenoxysulfonyl}-benzoic acid] was tested. Which pKi did it give?
Answer: The pKi was 7.94.

Question: How did the pKi turn out when `C[C@H](c1ccc(C(=O)Nc2ccc(C(=O)O)cc2)cc1Cl)[C@@](O)(c1ccnc(Cl)c1)C(F)(F)F` (stereo in doubt) [Example 26, 4-{3-Chloro-4-[2-(2-chloro-pyridin-4-yl)-3,3,3-trifluoro-2-hydroxy-1-methyl-propyl]-benzoylamino}-benzoic acid] was run?
Answer: Its pKi is 6.70.

Question: How did the pKi turn out when `COC(=O)c1ccnc(NC(=O)c2ccc([C@@H](C)[C@@](O)(c3ccnc(Cl)c3)C(F)(F)F)c(Cl)c2)c1` (stereo in doubt) [Example 27, 2-{3-Chloro-4-[-2-(2-chloro-pyridin-4-yl)-3,3,3-trifluoro-2-hydroxy-1-methyl-propyl]-benzoylamino}-isonicotinic acid methyl ester] was run?
Answer: Its pKi is 7.02.

Question: `C[C@H](c1ccc(C(=O)Nc2cc(C(=O)O)ccn2)cc1Cl)[C@@](O)(c1ccnc(Cl)c1)C(F)(F)F` (stereo in doubt) [Example 29, 2-{3-Chloro-4-[2-(2-chloro-pyridin-4-yl)-3,3,3-trifluoro-2-hydroxy-1-methyl-propyl]-benzoylamino}-isonicotinic acid] was tested. Which pKi did it give?
Answer: Its pKi is 6.77.

Question: `CCOC(=O)C1CCN(C(=O)c2ccc([C@@H](C)[C@@](O)(c3ccnc(Cl)c3)C(F)(F)F)c(Cl)c2)CC1` (stereo in doubt) [Example 32, 1-{3-Chloro-4-[2-(2-chloro-pyridin-4-yl)-3,3,3-trifluoro-2-hydroxy-1-methyl-propyl]-benzoyl}-piperidine-4-carboxylic acid ethyl ester] was tested. Which pKi did it give?
Answer: Its pKi is 6.61.

Question: How did the pKi turn out when `C[C@H](c1ccc(C(=O)Nc2ccn(CC(=O)O)n2)cc1Cl)[C@@](O)(c1ccnc(Cl)c1)C(F)(F)F` (stereo in doubt) [Example 35, (3-{3-Chloro-4-[2-(2-chloro-pyridin-4-yl)-3,3,3-trifluoro-2-hydroxy-1-methyl-propyl]-benzoylamino}-pyrazol-1-yl)-acetic acid] was run?
Answer: Its pKi is 6.47.

Question: `C[C@H](c1ccc(C(=O)NCc2ccc(C(=O)O)cc2)cc1Cl)[C@@](O)(c1ccnc(Cl)c1)C(F)(F)F` (stereo in doubt) [Example 37, 4-({3-Chloro-4-[2-(2-chloro-pyridin-4-yl)-3,3,3-trifluoro-2-hydroxy-1-methyl-propyl]-benzoylamino}-methyl)-benzoic acid] was tested. Which pKi did it give?
Answer: The pKi was 6.85.

Question: `C[C@H](c1ccc(C(=O)Nc2ccc(CC(=O)O)cc2)cc1Cl)[C@@](O)(c1ccnc(Cl)c1)C(F)(F)F` (stereo in doubt) [Example 39, (4-{3-Chloro-4-[2-(2-chloro-pyridin-4-yl)-3,3,3-trifluoro-2-hydroxy-1-methyl-propyl]-benzoylamino}-phenyl)-acetic acid] was tested. Which pKi did it give?
Answer: Its pKi is 6.56.

Question: `C[C@H](c1ccc(C(=O)Nc2cccc(C(=O)O)c2)cc1Cl)[C@@](O)(c1ccnc(Cl)c1)C(F)(F)F` (stereo in doubt) [Example 41, 3-{3-Chloro-4-[2-(2-chloro-pyridin-4-yl)-3,3,3-trifluoro-2-hydroxy-1-methyl-propyl]-benzoylamino}-benzoic acid] was tested. Which pKi did it give?
Answer: The pKi was 6.54.

Question: `CCOC(=O)Cc1ccc(CNC(=O)c2ccc([C@@H](C)[C@@](O)(c3ccnc(Cl)c3)C(F)(F)F)c(Cl)c2)cc1` (stereo in doubt) [Example 42, [4-({3-Chloro-4-[2-(2-chloro-pyridin-4-yl)-3,3,3-trifluoro-2-hydroxy-1-methyl-propyl]-benzoylamino}-methyl)-phenyl]-acetic acid ethyl ester] was tested. Which pKi did it give?
Answer: Its pKi is 6.55.

Question: With `C[C@H](c1ccc(C(=O)NCc2ccc(CC(=O)O)cc2)cc1Cl)[C@@](O)(c1ccnc(Cl)c1)C(F)(F)F` (stereo in doubt) [Example 43, [4-({3-Chloro-4-[2-(2-chloro-pyridin-4-yl)-3,3,3-trifluoro-2-hydroxy-1-methyl-propyl]-benzoylamino}-methyl)-phenyl]-acetic acid] as the compound, how does the pKi read?
Answer: The pKi was 6.81.

Question: With `C[C@H](c1ccc(-c2nc(C(=O)O)no2)cc1Cl)[C@@](O)(c1ccnc(Cl)c1)C(F)(F)F` (stereo in doubt) [Example 48, 5-{3-Chloro-4-[2-(2-chloro-pyridin-4-yl)-3,3,3-trifluoro-2-hydroxy-1-methyl-propyl]-phenyl}-[1,2,4]oxadiazole-3-carboxylic acid] as the compound, how does the pKi read?
Answer: Its pKi is 6.84.

Question: `COC(=O)c1ccc(-c2ccc([C@@H](C)[C@@](O)(c3ccnc(Cl)c3)C(F)(F)F)c(Cl)c2)cc1` (stereo in doubt) [Example 49, 3′-Chloro-4′-[2-(2-chloro-pyridin-4-yl)-3,3,3-trifluoro-2-hydroxy-1-methyl-propyl]-biphenyl-4-carboxylic acid methyl ester] was tested. Which pKi did it give?
Answer: Its pKi is 7.73.

Question: With `CCOC(=O)c1cccc(-c2ccc([C@@H](C)[C@@](O)(c3ccnc(Cl)c3)C(F)(F)F)c(Cl)c2)c1` (stereo in doubt) [Example 51, 3′-Chloro-4′-[2-(2-chloro-pyridin-4-yl)-3,3,3-trifluoro-2-hydroxy-1-methyl-propyl]-biphenyl-3-carboxylic acid ethyl ester] as the compound, how does the pKi read?
Answer: The pKi was 6.82.

Question: How did the pKi turn out when `C[C@H](c1ccc(-c2ccc(C(=O)O)c(F)c2)cc1Cl)[C@@](O)(c1ccnc(Cl)c1)C(F)(F)F` (stereo in doubt) [Example 54, 3′-Chloro-4′-[2-(2-chloro-pyridin-4-yl)-3,3,3-trifluoro-2-hydroxy-1-methyl-propyl]-3-fluoro-biphenyl-4-carboxylic acid] was run?
Answer: Its pKi is 7.53.

Question: `C[C@H](c1ccc(-c2ccc(CCC(=O)O)cc2)cc1Cl)[C@@](O)(c1ccnc(Cl)c1)C(F)(F)F` (stereo in doubt) [Example 55, 3-{3′-Chloro-4′-[2-(2-chloro-pyridin-4-yl)-3,3,3-trifluoro-2-hydroxy-1-methyl-propyl]-biphenyl-4-yl}-propionic acid] was tested. Which pKi did it give?
Answer: The pKi was 7.53.

Question: `CCOC(=O)c1cccc(-c2ccc([C@@H](C)[C@@](O)(c3ccnc(-c4cccc(C(=O)OCC)c4)c3)C(F)(F)F)c(Cl)c2)c1` (stereo in doubt) [Example 56, 3′-Chloro-4′-{2-[2-(3-ethoxycarbonyl-phenyl)-pyridin-4-yl]-3,3,3-trifluoro-2-hydroxy-1-methyl-propyl}-biphenyl-3-carboxylic acid ethyl ester] was tested. Which pKi did it give?
Answer: Its pKi is 6.68.

Question: How did the pKi turn out when `C[C@H](c1ccc(-c2ccc(C(=O)O)cc2)cc1Cl)[C@@](O)(c1ccnc(-c2ccc(C(=O)O)cc2)c1)C(F)(F)F` (stereo in doubt) [Example 57, 4′-{2-[2-(4-Carboxy-phenyl)-pyridin-4-yl]-3,3,3-trifluoro-2-hydroxy-1-methyl-propyl}-3′-chloro-biphenyl-4-carboxylic acid] was run?
Answer: The pKi was 6.62.

Question: With `COc1cc(C(=O)O)ccc1Oc1ccc([C@@H](C)[C@@](O)(c2ccnc(Cl)c2)C(F)(F)F)c(Cl)c1` (stereo in doubt) [Example 92, 4-{3-Chloro-4-[2-(2-chloro-pyridin-4-yl)-3,3,3-trifluoro-2-hydroxy-1-methyl-propyl]-phenoxy}-3-methoxy-benzoic acid] as the compound, how does the pKi read?
Answer: Its pKi is 8.24.

Question: How did the pKi turn out when `Cc1cc([C@](O)([C@H](C)c2ccc(OCc3cnn(CC(=O)O)c3)cc2Cl)C(F)(F)F)ccn1` (stereo in doubt) [Example 103, (4-{3-Chloro-4-[3,3,3-trifluoro-2-hydroxy-1-methyl-2-(2-methyl-pyridin-4-yl)-propyl]-phenoxymethyl}-pyrazol-1-yl)-acetic acid] was run?
Answer: Its pKi is 7.17.

Question: How did the pKi turn out when `COC(=O)c1cnc(OCc2ccc([C@@H](C)[C@@](O)(c3ccnc(Cl)c3)C(F)(F)F)c(Cl)c2)cn1` (stereo in doubt) [Example 120, 5-{3-Chloro-4-[2-(2-chloro-pyridin-4-yl)-3,3,3-trifluoro-2-hydroxy-1-methyl-propyl]-benzyloxy}-pyrazine-2-carboxylic acid methyl ester] was run?
Answer: The pKi was 8.01.

Question: `C[C@H](c1ccc(COc2cnc(C(=O)O)cn2)cc1Cl)[C@@](O)(c1ccnc(Cl)c1)C(F)(F)F` (stereo in doubt) [Example 121, 5-{3-Chloro-4-[2-(2-chloro-pyridin-4-yl)-3,3,3-trifluoro-2-hydroxy-1-methyl-propyl]-benzyloxy}-pyrazine-2-carboxylic acid] was tested. Which pKi did it give?
Answer: The pKi was 7.73.
